# Test results: ChEMBL document CHEMBL1138775, “Soft docking and multiple receptor conformations in virtual screening” (J Med Chem, 2004)
# Target: T1, Aldo-keto reductase family 1 member B1 (Sus scrofa, UniProt P80276)
# Experiment: Inhibition of aldose reductase from pig lenses
row,Structure (SMILES),IC50 [µM]
1,O=C(O)Cc1cn(Cc2cccc(Cl)c2)c2ccccc12,14
2,Clc1ccc(CN(Cc2ccc(Cl)cc2)c2nnn[nH]2)cc1,336
3,O=C(O)c1nnn(-c2cccc(Br)c2)c1-c1ccccc1,274
4,O=C(O)C1CC(=O)N(Cc2ccc(Cl)cc2)C1 (stereo not drawn),8
5,O=C1NC(=O)[C@@]2(CCOc3ccc(F)cc32)N1 [SORBINIL],1.1
6,COc1ccc2c(C(=S)N(C)CC(=O)O)cccc2c1C(F)(F)F [TOLRESTAT],0.038

# Target: T1, Aldo-keto reductase family 1 member B1
# Experiment: Inhibition of aldose reductase from pig lenses; no inhibition
row,Structure (SMILES),IC50 [µM]
1,CC(OCc1ccc(Cl)cc1)C(NC(=O)CC(C)(C)C)C(=O)O (stereo not drawn),> 400
2,CC(OCc1ccccc1)C(NC(=O)OCc1ccccc1)C(=O)O (stereo not drawn),> 300
